Read-outs that look alike come from different tables or passages of the source.
Tests used:
human sputum elastase = target: T1, human sputum elastase (Homo sapiens, UniProt P08246); test: Inhibitory effect on elastase (human sputum), spectrophotometric assay with MeOSuc-Ala-Ala-Pro-Val-pNA; format: biochemical
T1 sequence (P08246 30-247 limits assumed): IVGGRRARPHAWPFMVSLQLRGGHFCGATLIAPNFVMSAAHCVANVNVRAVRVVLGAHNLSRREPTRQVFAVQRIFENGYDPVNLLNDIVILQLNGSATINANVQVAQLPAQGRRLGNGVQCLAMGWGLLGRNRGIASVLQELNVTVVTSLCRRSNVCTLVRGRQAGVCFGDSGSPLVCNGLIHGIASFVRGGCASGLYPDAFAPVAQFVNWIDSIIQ
Protocol: (§2) Namely, it is a spectrophotometric assay using the synthesized substrate, methoxysuccinyl-alanyl-alanyl- prolyl-valyl-p-nitroanilide(MeOSuc-Ala-Ala-Pro-Val-pNA, Cambridge research biochemical Co.) which has high specificity on neutrophil elastase.
(§3) 20 μl of a test compound of various concentrations and 20 μl of enzyme solution (13 unit/ml) were added to 400 μl of 0.1M sodium phosphate buffer (pH 8.0). The mixture was incubated at 37° C. for 5 min, and then 20 μl of the substrate was added to the mixture in a final volume of 460 μl. The reaction was conducted by incubating thus obtained mixture at 37° C. for 20 min. The reaction was stopped by the addition of 300 μl of 20% acetic acid into the reaction mixture, and then p-nitroanilide released was measured by the spectrophotometrically at 405 nm.
(§4) Inhibition percents of the test compounds were calculated by the following equation:
(§5) Inhibition %=[1-(OD 405 nm value of the testing sample-background)/(OD 405 nm value of the control-background)]×100

[1] = test system: pancreatic elastase induced acute lung injury in mice; test: Inhibitory effect on pancreatic elastase induced acute lung injury in mice; format: in vivo, ICR mice; conditions: oral 10 mg/Kg at 3.5 hr before and 4.5~5.0 hr after P. elastase (5 μg/site); BAL fluid at 20 hrs
Protocol: ICR mice (25~30 g, .male., n=7~8) were used.
The compound to be evaluated was suspended in 0.5% sodium carboxymethylcellulose-saline.
Oral administration of the test compound was given at 10 mg/Kg at 3. 5 hr before an intratacheal instillation of P. elastase (5 μg/site). After sodium pentobarbital anesthetized, sterile saline containing P. elastase was instilled intratracheally via ventral neck in the throat incisions using a 250 μl syringe attached to a 27-gauge needle.
The throat incisions were closed with surgical suture, and test compounds were administered with the same manner as described above at 4.5~5.0hr after an intratracheal instillation of P. elastase.
At 20 hrs after an intratracheal instillation of P. elastase, animalz were euthanized by an i.p. pentobarbital overdose, each animal trachea was reexposed and the ventral nech region was small incised. A 10 cm length of small-diameter (O.D=0.5 mm) polyethylene catheter inserted and held in place using surgical suture. The lung were then lavaged with 500 μl sterile saline using a 1 ml syringe by gently expanding the lung and then withdrawing the saline.
The same operation was repeated 6 times, yielding in a final volume of 3 ml bronchoalveolar lavage (BAL) fluid from each animal.
The test compounds were evaluated as a inhabitory percent of hemorrhage and leukocyte number in the BAL fluid from each animal.
Operation for hemorrhage and leukocyte number assay;
Red blood cells were bursted with adding 50 μl KCN solution (0.33%) per 1 ml BAL fluid. The amount of blood in each BAL fluid sample was calculated from a hemoglobin standard curve.
(§1) BAL fluid was diluted to 100 fold with a balanced electrolyte solution and KCN solution (0.33%) was added to the diluted BAL fluid for lysis of contaminating red blood cells.
Leukocyte number was determined by the average of the three times count using a particle counter.
Inhibitory effects of the test compounds on hemorrhage and leukocyte infiltration were calculated from the following equation: Inhibitory percent=[1-(The average value of test compound
group)/(The average value of the control group)]×100
The control animals were dosed orally with the same amount of vehicle before and after intratracheal instillation of P. elastase, and it were treated with the same manner as the test compound group.

[2] = test system: endotoxin induced acute lung injury in mice; test: Inhibitory effect on endotoxin induced acute lung injury in mice; format: in vivo, ICR mice; conditions: Mus musculus, oral 10 mg/Kg at 1.5 hr before and 4.5~5.0 hr after LPS (25 μg/site), BAL fluid at 19~20 hrs
Protocol: ICR mice (25~30 g, .male., n=7) were used.
The test compounds were suspended at 0.1% in 0.5% sodium carboxymethylcellulose-saline.
Oral administration of the test compounds were given at 10 mg/Kg at 1.5 hr before an intratracheal instillation of LPS (E.coli, 055:B5, Difico, 25 μg/site). After sodium pentobarbital anesthetized, LPS dissolved in sterile saline was instilled intratracheally via a ventral neck in the throat incisionusing with a 250 μl syringe attached to a 27-gauge needle.
The throat incisions were sutured with surgical threads, and PI-compound was administered with the same mannner as described above 4.5~5.0 hr after LPS instillation.
Up 19~20 hrs after LPS instillation, animals were euthanized by an i.p. pentobarbital overdose, each animal trachea was reexposed and the ventral neck region was small incised.
A 10 cm length of small-diameter (O.D=0.5 mm) polyethylene catheter inserted and held in place using surgical suture. The lung was then lavaged with a single 500 μl sterile saline using a 1 ml syringe by gently expanding the lung and then withdrawing the saline. The same operation was repeated 6 times, yielding a final volume of 3 ml bronchoalveolar lavage (BAL) fluid from each animal.
Evaluation of testing compounds were expressed as inhibitory percent of hemorrhage and leukocyte infiltration in the lung of each animals.
Estimation for hemorrhage:
Red blood cells were bursted with adding 50 μl KCN solution (0.33 %) per 1 ml of BAL fluid, and then the amount of blood in each BAL fluid samples were calculated from a hemoglobin standard curve.
Estimation of leukocyte infiltrations:
as §1
Leukocyte number was determined from the average of the three times count using a particle counter.
The inhibitory effect of testing compounds were calculated from thefollowing equation:
Inhibitory percent=[1-(The average value of the test compound group)/(The
average value of the control group)]×100
The control animals were dosed orally with the same amount of the vehicle before and after intratracheal instillation of LPS and were operated with the same manner as the animals tested with the test compounds.

[3] = Cytotoxicity test (MTT, three days); format: cell-based; conditions: mouse, l1210 cells, read-out: Survival rate; for viability at 72 h, 1 µM: final concentration 1 μM; for viability at 72 h, 5 µM: final concentration 5 μM; for viability at 72 h, 10 µM: final concentration 10 μM
Protocol: L1210 (lymphocytic leukemia, mouse) cells in a logarithmic growth phase were collected and washed twice with HBSS (Hanks' balanced salt solution). The L1210 cells were resuspended at 5.0×10^4 cells/ml in RPMI 1640 medium containing 10% heat-inactivated fetal bovine serum. The cell suspension was dispensed in 100 μl aliquots into 96 well multi-plate. Each of compounds to be tested was dissolved in dimethylsulfoxide at a concentration of 10 mM. The solutions were stepwise diluted with RPMI 1640 solution containing 10% heat-inactivated fetal bovine serum. Each of the diluted samples was dispensed in an amount of 10 μl well in the 96 well multi-plate containing L1210 cells and incubated for three days at 37° C. in humidified 5% CO2 -air mixture. To each of the wells, 10 μl of MTT (3-(4,5-dimethylthiazol-2-yl)-2,5-diphenyltetrazolium bromide)(5 mg/ml in phosphate buffer free of Ca^2+ and Mg^2+) was added. Cultivation was continued for additional five hours at 37° C. in humidified 5% CO2 -air mixture. To each of the wells, 100 μl of 20% SDS (sodium dodecyl sulfate) in 0.01N HCl was added to solubilize the MTT formazan.
Absorbance was measured at 630 nm as a reference wavelength and 570 nm as a measuring wavelength using Corona Electric MTP22 Microplate Photometer. The measurement was conducted three times for each of the samples to obtain an average value and a standard deviation. Survival rate was calculated by the following equation:
Survival rate (5)=[(absorbance of test sample)/(absobance of […]

[4] = target: T2, human neutrophil elastase (Homo sapiens, UniProt P08246); test: Inhibitory effect on elastase (human neutrophil), spectrophotometric assay with MeOSuc-Ala-Ala-Pro-Val-pNA; format: biochemical
T2 construct: using elastase from human neutrophil or human sputum; from tissue; host or cells: human neutrophil
T2 sequence (P08246 30-247 limits assumed): T1 sequence (P08246 30-247 limits assumed)
Protocol: as §2, §3, §4, §5

[5] = test system: endotoxin-induced lung disorders; conditions: The Course of Medical Science, 1992, 160, No. 4, pp. 257-258; cited from earlier work
[6] = S: human sputum elastase, pH 8.0, 37° C., read-out: IC50
[7] = Leukocyte, read-out: Inhibitory percent of leukocyte infiltration
[8] = read-out: Inhibitory percent of hemorrhage
[9] = N: human neutrophil elastase, pH 8.0, 37° C., read-out: IC50

Row | IC50 (human sputum elastase; [6]) [nM] | IC50 [4, 9] [nM] | Structure (SMILES) | Inhibitory percent of hemorrhage [1] [%] | Inhibitory percent of leukocyte infiltration [1] [%] | inhibition in vivo at 10 mg/kg [2, 7] [%] | inhibition in vivo at 10 mg/kg [2, 8] [%] | viability at 72 h, 1 µM [3] [%] | viability at 72 h, 5 µM [3] [%] | viability at 72 h, 10 µM [3] [%] | IC50 [4] [nM] | IC50 (human sputum elastase) [nM] | effect of inhibiting endotoxin-induced lung disorders (in words) [5]
1 | 510 | 42 | CC(C)c1ccc(Cn2nnc(-c3ccc(OC(=O)C(C)(C)C)cc3)n2)cc1 [Example 19, 4-[2-(4-Isopropylbenzyl)tetrazol-5-yl]phenyl pivalate] | 76.8 | 14.1 | 65.6 | 33.8 | – | – | – | – | – | –
2 | 140 | – | CN(C)Cc1ccc(Cn2nnc(-c3ccc(OC(=O)C(C)(C)C)cc3)n2)cc1 [Example 47, 4-[2-[4-(Dimethylaminomethyl)benzyl]tetrazol-5-yl]phenyl pivalate] | – | – | 61.5 | 48.6 | – | – | – | – | – | –
3 | 38 | – | CC(C)(C)C(=O)Oc1ccc(-c2nnn(C(C(=O)OCc3ccccc3)c3ccccc3)n2)cc1 (stereo not drawn) [Example 51, 4-[2-[α-(Benzyloxycarbonyl)benzyl)tetrazol-5-yl]phenyl pivalate] | – | – | 20.5 | 57 | – | – | – | – | – | –
4 | – | 300 | CC(C)(C)C(=O)Oc1ccc(-c2nnn(Cc3ccccc3C(=O)NCC(=O)O)n2)cc1 [Example 63, N-[2-[5-(4-Pivaloyloxyphenyl)tetrazol-2-ylmethyl]benzoyl]glycine] | – | – | – | – | 105 | 103 | 100 | – | – | –

Second part, the molecule before the results:

Row | Structure (SMILES) | IC50 (human sputum elastase; [6]) [nM] | IC50 [4, 9] [nM] | Inhibitory percent of hemorrhage [1] [%] | Inhibitory percent of leukocyte infiltration [1] [%] | inhibition in vivo at 10 mg/kg [2, 7] [%] | inhibition in vivo at 10 mg/kg [2, 8] [%] | viability at 72 h, 1 µM [3] [%] | viability at 72 h, 5 µM [3] [%] | viability at 72 h, 10 µM [3] [%] | IC50 [4] [nM] | IC50 (human sputum elastase) [nM] | effect of inhibiting endotoxin-induced lung disorders (in words) [5]
5 | CN(C)c1ccc(Cn2nnc(-c3ccc(OC(=O)C(C)(C)C)c(N(C)C)c3)n2)cc1 [Example 7, 2-Dimethylamino-4-[2-[4-(dimethylamino)benzyl]tetrazol-5-yl]phenyl pivalate] | 540 | – | 23.6 | 26.1 | 82.1 | 88.5 | 97 | 96.1 | 88.3 | – | – | –
6 | CN(C)c1ccc(Cn2nnc(-c3ccc(OC(=O)C(C)(C)C)cc3)n2)cc1 [Example 16, 4-[2-[4-(Dimethylamino)benzyl]tetrazol-5-yl]phenyl pivalate] | 150 | 30 | 44.0 | 49.0 | 88.2 | 84.9 | 94.2 | 103 | 104 | – | – | –
7 | CC(C)(C)C(=O)Oc1ccc(-c2nnn(Cc3ccncc3)n2)cc1 [Example 35, 4-[2-(4-Pyridylmethyl)tetrazol-5-yl]phenyl pivalate] | 14 | – | 71.5 | 45.1 | – | – | 95.2 | 110 | 99.1 | – | – | –
8 | COc1ccc(COCCCCn2nnc(-c3ccc(OC(=O)C(C)(C)C)cc3)n2)cc1 [Example 42, 4-[2-[4-(4-Methoxybenzyloxy)butyl]tetrazol-5-yl]phenyl pivalate] | 22 | 19 | – | – | 64.1 | 39.4 | – | – | – | – | – | –
9 | CC(C)(C)C(=O)Oc1ccc(-c2nnn(Cc3ccc(C(=O)N4CCC[C@H]4C(=O)O)cc3)n2)cc1 [Example 59, N-[4-[5-(4-pivaloyloxyphenyl)tetrazol-2-ylmethyl]benzoyl]-L-Proline] | 40 | – | – | – | 58.8 | 81.5 | – | – | – | – | – | –
10 | CC(C)(C)C(=O)Oc1ccc(-c2nnn(CCOC(=O)c3ccc(NC(=N)N)cc3)n2)cc1 [Example 94, 4-[2-[2-(4-Guanidinobenzoyloxy)ethyl]tetrazol-5-yl]phenyl pivalate Acetate] | – | – | – | – | 51.8 | 36.6 | – | – | – | 96 | – | –
11 | CC(=O)O.CC(C)(C)C(=O)Oc1ccc(-c2nnn(CCNC(=O)c3ccc(NC(=N)N)cc3)n2)cc1 [Example 95, 4-[2-[2-(4-Guanidinobenzoylamino)ethyl]tetrazol-5-yl]phenyl pivalate Acetate] | – | – | 15.2 | 30.2 | 79.6 | 62.3 | 103 | 109 | 107 | – | 250 | –
12 | CC(C)(C)C(=O)Oc1ccc(S(=O)(=O)Nc2ccccc2C(=O)NCC(=O)O)cc1 [ONO-5046] | – | – | – | – | – | – | – | – | – | – | – | shows an effect of inhibiting endotoxin-induced lung disorders
